Results on 42 compounds are retold here after patent US7015236B2, “N-heteroarylnicotinamide derivatives” (Sankyo Agro Company, Limited, priority 2001, dated 2006).

In the first assay the test system is green peach aphid (Myzus persicae). The assay can be described thus: Insecticidal test for green peach aphid (100 ppm), Test Example 1. As to conditions: 120 h. The format is in vivo. The method, then:
Insecticidal test for green peach aphid (Myzus persicae) (100 ppm)
Water (30 ml) was put into a beaker, and a leaf of Komatsuna (Brassica var. rapa) was placed within the beaker such that the stem was immersed in water. On the leaf of Komatsuna, five green peach aphids were released and allowed to fertilize. Two days after the releasing, imagoes were removed and the number of larvae was counted.
A surfactant Newcol NE-710F (trademark, produced by Nippon Nyukazai Co., Ltd., 2%) was dissolved in aqueous acetone (95% aqueous solution, 98%) to prepare solution 1. Next, a dispersant Gousenol GLO5-S (trademark, produced by Nippon Nyukazai Co., Ltd., 0.2% aqueous solution, 0.2%) was dissolved in water (99.8%) to prepare solution 2.
To each of the compounds (8 mg) of the present invention, the above solution 1 (0.4 ml), the above solution 2 (0.4 ml) and water (8 ml) were added. Further, the compounds of the present invention were each diluted with water so that the concentration of each compound was 100 ppm {as a spreading agent, Gramin S (trademark, produced by Sankyo Co., Ltd.) was added so as to have a concentration of 0.01%}.
The above chemical liquid (8 ml) was sprayed on the leaf of Komatsuna by use of a rotary spraying tower. The leaf of Komatsuna was put back in the beaker. Then, the beaker was placed in a thermostatic chamber of 25° C. for 16 hours in the light and for 8 hours in the dark. 5 Days after the spraying, the number of dead insects was counted to calculate the mortality (%).
A word on the mortality: it is the share of the test organisms that died. `O=C(Nc1cc(C=NO)no1)c1cnccc1C(F)(F)F` [Example 8, N-(3-Hydroxyiminomethyl-5-isoxazolyl)-4-(trifluoromethyl)nicotinamide] registered a mortality at 100 ppm of at least 95%.

Staying with this assay, now noted: 120 h, 100 ppm spray on Komatsuna leaf, larvae, counted 5 days after spraying, 25° C., read-out: mortality (%).
Turning to `CC(=O)N(C(=O)c1cnccc1C(F)(F)F)c1cc(C)no1` [Example 27, N-Acetyl-N-(3-methyl-5-isoxazolyl)-4-(trifluoromethyl)nicotinamide], the mortality at 100 ppm was at least 95%.
Take `O=C(Nc1oncc1-c1ccc(C(F)(F)F)cc1)c1cnccc1C(F)(F)F` [Example 57, N-[4-(4-Trifluoromethylphenyl)-5-isoxazolyl]-4-(trifluoromethyl)nicotinamide]: the mortality at 100 ppm is at least 95%.
Still for that read-out and setting: to `O=C(Nc1oncc1CCc1ccccc1)c1cnccc1C(F)(F)F` [Example 46, N-(4-Phenylethyl-5-isoxazolyl)-4-(trifluoromethyl)nicotinamide] belongs at least 95%; to `CCOC(OCC)c1cc(NC(=O)c2cnccc2C(F)(F)F)on1` [Example 26, N-(3-Diethoxymethyl-5-isoxazolyl)-4-(trifluoromethyl)nicotinamide], at least 95%; to `O=C(Nc1oncc1Cl)c1cnccc1C(F)(F)F` [Example 11, N-(4-Chloro-5-isoxazolyl)-4-(trifluoromethyl)nicotinamide], at least 95%.
Still for that read-out and setting: to `Cc1cc(N(C)C(=O)c2cnccc2C(F)(F)F)on1` [Example 16, N-Methyl-N-(3-methyl-5-isoxazolyl)-4-(trifluoromethyl)nicotinamide] belongs at least 95%; to `O=C(c1cnccc1C(F)(F)F)N(C(=O)c1cnccc1C(F)(F)F)c1ccno1` [Example 30, 5-[N,N-Bis(4-trifluoromethylnicotinoyl)]aminoisoxazole], at least 95%; to `O=C(Nc1oncc1-c1ccc(Cl)cc1)c1cnccc1C(F)(F)F` [Example 56, N-[4-(4-Chlorophenyl)-5-isoxazolyl]-4-(trifluoromethyl)nicotinamide], at least 95%.
`Cc1noc(NC(=O)c2cnccc2C(F)(F)F)c1C` [Example 33, N-(3,4-Dimethyl-5-isoxazolyl)-4-(trifluoromethyl)nicotinamide]: the mortality at 100 ppm is at least 95%.
As for `O=C(Nc1oncc1-c1ccccc1)c1cnccc1C(F)(F)F` [Example 53, N-(4-Phenyl-5-isoxazolyl)-4-(trifluoromethyl)nicotinamide], the mortality at 100 ppm is at least 95%.
On the same count and under the same terms, to `Cc1noc(NC(=O)c2cnccc2C(F)(F)F)c1-c1ccccc1` [Example 61, N-(3-Methyl-4-phenyl-5-isoxazolyl)-4-(trifluoromethyl)nicotinamide] belongs at least 95%.
As for `O=C(Nc1oncc1-n1cccn1)c1cnccc1C(F)(F)F` [Example 64, N-[4-(1H-Pyrazol-1-yl)-5-isoxazolyl]-4-(trifluoromethyl)nicotinamide], the mortality at 100 ppm is at least 95%.
The same measure, in the same setting: to `CCOCN(C(=O)c1cnccc1C(F)(F)F)c1cc(C)no1` [Example 2, N-Ethoxymethyl-N-(3-methyl-5-isoxazolyl)-4-(trifluoromethyl)nicotinamide] belongs at least 95%; to `O=C(Nc1oncc1C1CCCC1)c1cnccc1C(F)(F)F` [Example 42, N-(4-Cyclopentyl-5-isoxazolyl)-4-(trifluoromethyl)nicotinamide], at least 95%; to `CCCc1cnoc1NC(=O)c1cnccc1C(F)(F)F` [Example 35, N-(4-Propyl-5-isoxazolyl)-4-(trifluoromethyl)nicotinamide], at least 95%.
On the same count and under the same terms, then `CON=Cc1noc(NC(=O)c2cnccc2C(F)(F)F)c1Cl` [Example 60, N-(4-Chloro-3-methoxyiminomethyl-5-isoxazolyl)-4-(trifluoromethyl)nicotinamide], with at least 95%.
Turning to `COc1ccc(-c2cnoc2NC(=O)c2cnccc2C(F)(F)F)cc1` [Example 55, N-[4-(4-Methoxyphenyl)-5-isoxazolyl]-4-(trifluoromethyl)nicotinamide], the mortality at 100 ppm is at least 95%.
Turning to `O=C(Nc1oncc1C1=CCCCC1)c1cnccc1C(F)(F)F` [Example 62, N-[4-(Cyclohex-1-ene-1-yl)-5-isoxazolyl]-4-(trifluoromethyl)nicotinamide], the mortality at 100 ppm was at least 95%.
As for `CCOC(=O)c1cc(NC(=O)c2cnccc2C(F)(F)F)on1` [Example 29, N-(3-Ethoxycarbonyl-5-isoxazolyl)-4-(trifluoromethyl)nicotinamide], the mortality at 100 ppm was at least 95%.
On the same count and under the same terms, to `CCCCCCc1cnoc1N(C(=O)c1cnccc1C(F)(F)F)C(=O)c1cnccc1C(F)(F)F` [Example 44, 5-[N,N-Bis(4-trifluoromethylnicotinoyl)]amino-4-hexylisoxazole] belongs at least 95%.
Take `CCc1cnoc1NC(=O)c1cnccc1C(F)(F)F` [Example 34, N-(4-Ethyl-5-isoxazolyl)-4-(trifluoromethyl)nicotinamide]: the mortality at 100 ppm is at least 95%.
Turning to `CCCCCCc1cnoc1NC(=O)c1cnccc1C(F)(F)F` [Example 43, N-(4-Hexyl-5-isoxazolyl)-4-(trifluoromethyl)nicotinamide], the mortality at 100 ppm was at least 95%.
As for `O=C(Nc1oncc1Cc1ccccc1)c1cnccc1C(F)(F)F` [Example 45, N-(4-Benzyl-5-isoxazolyl)-4-(trifluoromethyl)nicotinamide], the mortality at 100 ppm was at least 95%.
The same measure, in the same setting: then `O=C(Nc1onc(C2CC2)c1Cl)c1cnccc1C(F)(F)F` [Example 12, N-(4-Chloro-3-cyclopropyl-5-isoxazolyl)-4-(trifluoromethyl)nicotinamide], with at least 95%.
With `Cc1ccc(-c2cnoc2NC(=O)c2cnccc2C(F)(F)F)cc1` [Example 54, N-[4-(4-Methylphenyl)-5-isoxazolyl]-4-(trifluoromethyl)nicotinamide], the mortality at 100 ppm was at least 95%.
The same measure, in the same setting: to `Cc1noc(NC(=O)c2cnccc2C(F)(F)F)n1` [Example 21, N-(3-Methyl-[1,2,4]oxadiazol-5-yl)-4-(trifluoromethyl)nicotinamide] belongs at least 95%; to `CC(C)c1cc(NC(=O)c2cnccc2C(F)(F)F)on1` [Example 6, N-(3-Isopropyl-5-isoxazolyl)-4-(trifluoromethyl)nicotinamide], at least 95%.
The same measure, in the same setting: to `O=Cc1cc(NC(=O)c2cnccc2C(F)(F)F)on1` [Example 7, N-(3-Formyl-5-isoxazolyl)-4-(trifluoromethyl)nicotinamide] belongs at least 95%; to `O=C(c1cnccc1C(F)(F)F)N(C(=O)c1cnccc1C(F)(F)F)c1oncc1Oc1ccccc1` [Example 52, 5-[N,N-Bis(4-trifluoromethylnicotinoyl)]amino-4-phenoxyisoxazole], at least 95%; to `N#Cc1cc(NC(=O)c2cnccc2C(F)(F)F)on1` [Example 9, N-(3-Cyano-5-isoxazolyl)-4-(trifluoromethyl)nicotinamide], at least 95%.
As to `CC(C)c1cnoc1NC(=O)c1cnccc1C(F)(F)F` [Example 36, N-(4-Isopropyl-5-isoxazolyl)-4-(trifluoromethyl)nicotinamide], the mortality at 100 ppm is at least 95%.
In the case of `CC(C)Cc1cnoc1NC(=O)c1cnccc1C(F)(F)F` [Example 40, N-(4-Isobutyl-5-isoxazolyl)-4-(trifluoromethyl)nicotinamide], the mortality at 100 ppm is at least 95%.
For the compound `O=C(Nc1oncc1-c1cccnc1)c1cnccc1C(F)(F)F` [Example 59, N-[4-(3-Pyridyl)-5-isoxazolyl]-4-(trifluoromethyl)nicotinamide], the mortality at 100 ppm was at least 95%.
On the same count and under the same terms, then `COCc1cc(NC(=O)c2cnccc2C(F)(F)F)on1` [Example 10, N-(3-Methoxymethyl-5-isoxazolyl)-4-(trifluoromethyl)nicotinamide], with at least 95%; and `COCc1cnoc1NC(=O)c1cnccc1C(F)(F)F` [Example 63, N-(4-Methoxymethyl-5-isoxazolyl)-4-(trifluoromethyl)nicotinamide], with at least 95%; and `O=C(Nc1oncc1Oc1ccccc1)c1cnccc1C(F)(F)F` [Example 51, N-(4-Phenoxy-5-isoxazolyl)-4-(trifluoromethyl)nicotinamide], with at least 95%.
With `N#Cc1noc(NC(=O)c2cnccc2C(F)(F)F)c1Cl` [Example 22, N-(4-Chloro-3-cyano-5-isoxazolyl)-4-(trifluoromethyl)nicotinamide], the mortality at 100 ppm is at least 95%.
On the same count and under the same terms, to `COc1cnoc1NC(=O)c1cnccc1C(F)(F)F` [Example 47, N-(4-Methoxy-5-isoxazolyl)-4-(trifluoromethyl)nicotinamide] belongs at least 95%; to `COCc1noc(NC(=O)c2cnccc2C(F)(F)F)c1OC` [Example 48, N-(4-Methoxy-3-methoxymethyl-5-isoxazolyl)-4-(trifluoromethyl)nicotinamide], at least 95%.
For the compound `CCCCc1cnoc1NC(=O)c1cnccc1C(F)(F)F` [Example 39, N-(4-Butyl-5-isoxazolyl)-4-(trifluoromethyl)nicotinamide], the mortality at 100 ppm is at least 95%.
In the case of `CON=Cc1cc(NC(=O)c2cnccc2C(F)(F)F)on1` [Example 28, N-(3-Methoxyiminomethyl-5-isoxazolyl)-4-(trifluoromethyl)nicotinamide], the mortality at 100 ppm is at least 95%.
